Source: ChEMBL document CHEMBL5352418, “Molecular networking assisted discovery and combinatorial biosynthesis of new antimicrobial pleuromutilins” (Eur J Med Chem, 2022)
Converted amounts (≈) assume the structure as drawn. The source made the active and inactive calls. The rule behind the calls is not given here.

Legend:
RAW264.7 [1] = experiment: Immunostimulatory activity in mouse RAW264.7 cells assessed as increase in cell viability at 0.078 to 10 uM incubated for 48 hrs by CCK-8 assay; assay type: functional, cell-based; conditions: dose 0.078-10 µM
Staphylococcus aureus = experiment: Antibacterial activity against methicillin-resistant Staphylococcus aureus clinical isolate assessed as bacterial growth inhibition by CLSI protocol based broth microdilution method; assay type: functional
Pseudomonas aeruginosa = experiment: Antibacterial activity against Pseudomonas aeruginosa PA01 assessed as bacterial growth inhibition at 20 uM by CLSI protocol based broth microdilution method; assay type: functional; conditions: read-out: GI
RAW264.7 [2] = experiment: Immunostimulatory activity in mouse RAW264.7 cells assessed as increase in ROS production by measuring fluorescence intensity at 1 uM incubated for 24 hrs by DCFH-DA staining based fluorescence microplate reader assay; assay type: functional, cell-based
RAW264.7 [3] = experiment: Cytotoxicity activity mouse RAW264.7 cells assessed as reduction in cell viability at upto 100 uM incubated for 48 hrs by CCK-8 assay; assay type: toxicity, cell-based; conditions: raw264.7, 48 h
RAW264.7 [4] = experiment: Immunostimulatory activity in mouse RAW264.7 cells assessed as increase in cell viability at 1 uM incubated for 48 hrs by CCK-8 assay; assay type: functional
Escherichia coli [5] = experiment: Antibacterial activity against Escherichia coli OP50 assessed as bacterial growth inhibition at 20 uM by CLSI protocol based broth microdilution method; assay type: functional; conditions: read-out: GI
Enterococcus faecalis = experiment: Antibacterial activity against vancomycin-resistant Enterococcus faecalis clinical isolate assessed as bacterial growth inhibition by CLSI protocol based broth microdilution method; assay type: functional
RAW264.7 [6] = experiment: Immunostimulatory activity in mouse RAW264.7 cells assessed as increase in TNF-alpha production level at 1 uM incubated for 24 hrs by ELISA; assay type: functional, cell-based
Escherichia coli [7] = experiment: Antibacterial activity against enteropathogenic Escherichia coli […] assessed as bacterial growth inhibition at 20 uM by CLSI protocol based broth microdilution method; assay type: functional; conditions: read-out: GI
RAW264.7 [8] = experiment: Immunostimulatory activity in mouse RAW264.7 cells assessed as increase in NO production at 1 uM incubated for 24 hrs by Griess method; assay type: functional, cell-based
RAW264.7 [9] = experiment: Immunostimulatory activity in mouse RAW264.7 cells assessed as increase in IL-6 production level at 1 uM incubated for 24 hrs by ELISA; assay type: functional, cell-based

SMILES	Activity (RAW264.7 [1])	MIC (Staphylococcus aureus)	inhibition of growth at 20 µM (Pseudomonas aeruginosa)	Activity (RAW264.7 [2])	Activity (RAW264.7 [3])	Activity (RAW264.7 [4])	inhibition of growth at 20 µM (Escherichia coli [5])	MIC (Enterococcus faecalis)	Activity (RAW264.7 [6])	inhibition of growth at 20 µM (Escherichia coli [7])	Activity (RAW264.7 [8])	Activity (RAW264.7 [9])
C=C[C@]1(C)C[C@@H](OC(C)=O)[C@@]2(C)C3C(=O)CC[C@@]3(CC[C@H]2C)[C@@H](C)[C@@H]1O (stereo partly drawn)	Dose-Dependent Effect	0.39 µM (≈ 0.141 µg/mL)	51%	Active	Non-Toxic	60%	61%	2.5 µM (≈ 0.906 µg/mL)				
C=C[C@]1(C)C[C@@H](OC(=O)CO)[C@@]2(C)C3=CC(=O)C[C@@]3(CC[C@H]2C)[C@@H](C)[C@@H]1O		> 20 µM			Non-Toxic	inactive		5 µM (≈ 1.88 µg/mL)	Active			
C=C[C@]1(C)C[C@@H](O)[C@@]2(C)C3[C@H](O)CC[C@@]3(CC[C@H]2C)[C@@H](C)[C@@H]1O (stereo partly drawn)		12.5 µM (≈ 4.03 µg/mL)			Non-Toxic	inactive		20 µM (≈ 6.45 µg/mL)				
C=C[C@@]1(C)C[C@H](C)[C@]23CC[C@@H](O)C2[C@@](C)([C@H](C)CC3)[C@H](OC(C)=O)C1 (stereo partly drawn)		> 20 µM			Non-Toxic	inactive		2.5 µM (≈ 0.871 µg/mL)	Active			
C=C[C@]1(C)C[C@@H](OC(=O)CO)[C@@]2(C)C3C(=O)[C@H](O)CC3(CC[C@H]2C)[C@@H](C)[C@@H]1O (single isomer, unassigned)		3.12 µM (≈ 1.23 µg/mL)			Non-Toxic	inactive	70%	1.25 µM (≈ 0.493 µg/mL)	Active	52%	Active	Active
C=C[C@]1(C)C[C@@H](O)[C@@]2(C)C3=CC(=O)C[C@@]3(CC[C@H]2C)[C@@H](C)[C@@H]1O		> 20 µM			Non-Toxic	inactive		> 20 µM	Active			Active
C=C[C@]1(C)C[C@@H](OC(=O)CO)[C@@]2(C)C3C(=O)CC[C@@]3(CC[C@H]2C)[C@@H](C)[C@@H]1O (stereo partly drawn)	Dose-Dependent Effect	0.09 µM (≈ 0.0341 µg/mL)	40%		Non-Toxic	60%	71%	0.31 µM (≈ 0.117 µg/mL)				
C=C[C@]1(C)C[C@@H](OC(C)=O)[C@@]2(C)C3=CC(=O)C[C@@]3([C@H](O)C[C@H]2C)[C@@H](C)[C@@H]1O		> 20 µM			Non-Toxic	inactive		5 µM (≈ 1.88 µg/mL)	Active			Active
C=C[C@]1(C)C[C@@H](OC(=O)CO[C@H]2O[C@H](CO)[C@@H](O)[C@H](O)[C@H]2O)[C@@]2(C)C3C(=O)CCC3(CC[C@H]2C)[C@@H](C)[C@@H]1O (single isomer, unassigned)		> 20 µM			Non-Toxic	inactive	21%	> 20 µM	Active		Active	
C=C[C@]1(C)C[C@@H](O)[C@@]2(C)C3[C@H](O)CC[C@@]3(CC[C@H]2C)[C@@H](C)C1 (stereo partly drawn)		12.5 µM (≈ 3.83 µg/mL)			Non-Toxic	inactive		20 µM (≈ 6.13 µg/mL)				
C=C[C@]1(C)C[C@@H](OC(C)=O)[C@@]2(C)C3[C@H](O)CC[C@@]3(CC[C@H]2C)[C@@H](C)[C@@H]1O (stereo partly drawn)		6.25 µM (≈ 2.28 µg/mL)	18%		Non-Toxic	inactive	20%	0.625 µM (≈ 0.228 µg/mL)	Active			
C[C@@H]1CC[C@@]23CCC(=O)C2[C@]1(C)[C@H](OC(=O)CO)C[C@@](C)([C@H](O)CO)[C@@H](O)[C@@H]3C (stereo partly drawn)		> 20 µM			Non-Toxic	inactive	50%	20 µM (≈ 8.25 µg/mL)	Active		Active	
C=C[C@]1(C)C[C@@H](O)[C@@]2(C)C3CCC[C@@]3(CC[C@H]2C)[C@@H](C)C1 (stereo partly drawn)		12.5 µM (≈ 3.63 µg/mL)			Non-Toxic	inactive		20 µM (≈ 5.81 µg/mL)	Active			
C[C@@H]1CC[C@@]23CCC(=O)C2[C@]1(C)[C@H](OC(=O)CO)C[C@@]1(C)[C@H](O)CO[C@H]1[C@@H]3C (stereo partly drawn)		> 20 µM			Non-Toxic	inactive	34%	20 µM (≈ 7.89 µg/mL)	Active		Active	
C=C[C@@]1(C)C[C@H](C)[C@]23CCC(=O)C2[C@@](C)([C@H](C)CC3)[C@H](OC(C)=O)C1 (stereo partly drawn)		12.5 µM (≈ 4.33 µg/mL)			Non-Toxic	inactive		1.25 µM (≈ 0.433 µg/mL)				
CC(=O)OC[C@@H](O)[C@]1(C)C[C@@H](OC(=O)CO)[C@@]2(C)C3C(=O)CC[C@@]3(CC[C@H]2C)[C@@H](C)[C@@H]1O (stereo partly drawn)		> 20 µM			Non-Toxic	inactive	21%	> 20 µM	Active			Active
C=C[C@]1(C)C[C@@H](O)[C@@]2(C)C3C(=O)CC[C@@]3(CC[C@H]2C)[C@@H](C)[C@@H]1O (stereo partly drawn)		6.25 µM (≈ 2 µg/mL)		Active	Non-Toxic	inactive		5 µM (≈ 1.6 µg/mL)				
